Data on 121 compounds can be found in a melting point compilation (Tetko et al.).

The structures appear in SMILES notation.

For orientation: melting point means the temperature, or range, at which the solid turns liquid. `CC(Cl)C(=O)Nc1cccc(CSc2ccccn2)c1` (stereo unspecified) gave a melting point of 97 to 99 °C. Take `CCC(Oc1ccccc1C)C(=O)O` (stereo unspecified): the melting point lay in the range of 49 to 51 °C. In turn, `O=C(/C=C/c1ccco1)C(C(=O)/C=C/c1ccco1)=C1SCCCCS1` gave a melting point of 137 to 139 °C. `CCc1oc2ccccc2c1C(=O)O` returned a melting point of 89 to 91 °C.

Turning to `Cc1ccc(-n2nc(C)c(C=O)c2Cl)cc1`, the melting point fell in the range of 135 to 137 °C. To `NC(=O)CCc1ccc(C(=O)O)cc1` belongs 226 to 228 °C. `Cc1nnc(Cl)c2ccccc12` gave a melting point of 123 to 125 °C.

For `Nc1ccc(CCN2CCOCC2)cc1`, the melting point fell in the range of 87 to 89 °C. Compound `ClCc1csc(COc2ccc(Cl)cc2)n1` displayed a melting point of 75 to 77 °C. Next, `CC(=O)NCc1ccc(C(=O)C(C)Cl)s1` (stereo unspecified): 79 to 81 °C; `O=C(O)C1(c2ccc(Br)cc2)CCC1`: 117 to 119 °C; `Nc1ccccc1C(=O)NCCO`: 92 to 94 °C. `c1cc2c(s1)CCNC2C1CC1` (stereo unspecified): the melting point fell in the range of 44 to 46 °C. To `Nc1nnc(-c2cccc3ccccc23)o1` belongs 184 to 186 °C; to `CCc1c(-c2ccncc2)n[nH]c1N`, 154 to 156 °C; to `Cc1ccccc1COc1c(C)cc(C=O)cc1C`, 62 to 64 °C. In turn, `Cc1ccnc2[nH]c(CCl)nc12` had a melting point of 274 to 276 °C.

Regarding `O=C(O)Cn1ccc2cc([N+](=O)[O-])ccc21`, the melting point lay within 192 to 194 °C.

The compound `Nc1cc(-c2ccco2)nn1-c1ccc(F)cc1F` returned a melting point of 120 to 122 °C. To `Cc1cc(C=O)ccc1[N+](=O)[O-]` belongs 65 to 67 °C; to `Cc1cc(NC(=O)OCC(F)(F)F)n(C)n1`, 100 to 102 °C. Next, `Cc1ccc2oc(=O)[nH]c2c1`: 130 to 132 °C. The compound `Nn1c(S)nnc1-c1ccc(Cl)cc1Cl` displayed a melting point of 90 to 92 °C.

In turn, `COc1cc(-c2ccccc2)sc1C(=O)O` displayed a melting point of 167 to 169 °C. To `Fc1ccc(-c2n[nH]cc2Br)cc1` belongs 141 to 143 °C; to `CC(C)(C)c1ccc(C2(C(=O)O)CC2)cc1`, 201 to 203 °C. To `Cc1sc(-c2ccco2)nc1C(=O)O` belongs 229 to 231 °C; to `CCN(CC)S(=O)(=O)c1ccc(Cl)c(S(=O)(=O)Cl)c1`, 99 to 101 °C; to `NCc1ccc(-c2ccncc2)cc1`, 64 to 66 °C. To `Clc1cc(N2CCCC2)ncn1` belongs 93 to 95 °C.

Compound `CC(C)N1C(=O)c2ccc(C(=O)O)cc2S1(=O)=O` displayed a melting point of 238 to 240 °C. Compound `CNS(=O)(=O)c1cccc(C(=O)O)c1` registered a melting point of 209 to 211 °C.

`Cn1cc[nH]c(=O)c1=O` returned a melting point of 207 to 209 °C. Next, `CS(=O)(=O)C(Br)C(=O)c1ccccc1` (stereo unspecified): 90 to 92 °C.

The compound `Cc1[nH]c(C(=O)O)c(C)c1S(N)(=O)=O` showed a melting point of 214 to 216 °C.

In turn, `CC(Cl)C(=O)NCCc1ccc(S(N)(=O)=O)cc1` (stereo unspecified) displayed a melting point of 159 to 161 °C. To `Oc1ccc(OCC2CC2)cc1` belongs 54 to 56 °C. Next, `ClCc1cc2ccccc2s1`: 49 to 51 °C; `Fc1cccc(-c2nc(CCl)co2)c1`: 55 to 57 °C; `N#Cc1ccccc1-c1ccc(CBr)cc1`: 127 to 129 °C. To `O=C(O)c1csc(-c2ccccc2)n1` belongs 160 to 161 °C; to `Cn1c(=O)c2sccc2n2c(CCl)nnc12`, 244 to 246 °C. Take `O=C(Nc1cc(Cl)ccc1C(=O)O)c1ccc(F)cc1`: the melting point was 250 to 252 °C.

For `CN1CCN(c2ccc(CO)cc2F)CC1`, the melting point is 87 to 89 °C. For the compound `COc1ccc(Sc2ccc(N)cc2Cl)cc1`, the melting point lay in the range of 104 to 106 °C. Next, `COc1cc2c(C#N)c(OC)nc(N)c2c(N)n1`: 249 to 251 °C; `CC(Oc1ccc(Cl)cc1Br)C(=O)O` (stereo unspecified): 122 to 124 °C.

On to `Cc1c(C(=O)O)oc2c(F)cccc12`, for which the melting point was in the range of 236 to 238 °C. Next, `NC(=O)c1cccc(S(=O)(=O)Cl)c1`: 78 to 80 °C; `O=C(O)Cc1csc(NC(=O)c2ccc(Br)o2)n1`: 214 to 216 °C. To `CN1C(=O)C=C(Br)C1=O` belongs 84 to 86 °C; to `O=C(O)c1cc(Cl)nc(Cl)n1`, 114 to 116 °C. Consider `CS(=O)(=O)N(c1ccc(N)cc1Br)S(C)(=O)=O`, for which the melting point was in the range of 179 to 181 °C.

Compound `O=C(O)C1Cc2ccccc2CN1C(=O)CCl` (stereo unspecified) registered a melting point of 153 to 155 °C. `Cc1ccc(-c2nnc(C(C)Cl)o2)cc1C` (stereo unspecified) showed a melting point of 86 to 88 °C.

The compound `Sc1nnc(C2CC2)n1Cc1ccco1` gave a melting point of 260 to 262 °C. `Cc1ccc(S(=O)(=O)N2CCCC2C(=O)O)cc1` (stereo unspecified) yielded a melting point of 96 to 98 °C. Compound `CC(C)(C)OC(=O)N1CCC(N2CC(O)C2)CC1` yielded a melting point of 91 to 93 °C.

For `O=C1NC(=O)C(Cc2ccccc2)(Cc2ccccc2)N1`, the melting point fell in the range of 318 to 320 °C. To `Nn1cnc2ccc(Br)cc2c1=O` belongs 230 to 232 °C; to `CCNS(=O)(=O)c1cccc(F)c1`, 49 to 51 °C; to `CS(=O)(=O)c1ccc(Cl)c([N+](=O)[O-])c1`, 121 to 123 °C. In turn, `COC(=O)c1ccccc1CBr` gave a melting point of 31 to 33 °C.

`COC(=O)c1nonc1N`: the melting point is 115 to 117 °C. The compound `Cc1cc(Br)cc(C)c1C(=O)O` yielded a melting point of 184 to 186 °C. To `NC(Cc1ccccc1)CN1CCOCC1` (stereo unspecified) belongs 54 to 56 °C. To `Nc1[nH]nc(-c2ccccc2)c1-c1ccccc1` belongs 141 to 143 °C; to `Cc1ccc(-c2nnc(N)[nH]2)cc1`, 206 to 208 °C. `Cn1cc(C(=O)NN)cn1` gave a melting point of 179 to 181 °C. Next, `O=S(=O)(c1ccc2c(c1)CCN2)N1CCCCC1`: 171 to 173 °C; `NC(=O)Cc1noc2ccccc12`: 147 to 149 °C. Next, `CS(=O)(=O)Nc1nc2ccc(N)cc2s1`: 281 to 283 °C; `O=C1Nc2ccccc2N2CCC12` (stereo unspecified): 169 to 171 °C; `COC(=O)c1cnn2ccccc12`: 79 to 81 °C. Next, `Nc1ncccc1OCc1cccnc1`: 104 to 106 °C; `COc1cc(-c2noc(CCl)n2)ccc1OC(F)F`: 46 to 50 °C; `COc1cc2c(cc1OC)C(c1ccccc1)NCC2` (stereo unspecified): 111 to 113 °C. Take `O=C(NCC(F)(F)F)c1ccc(Br)cc1`: the melting point fell in the range of 119 to 121 °C. To `N#CCC(=O)NN1CCCCC1=O` belongs 146 to 148 °C; to `CC(C)n1nnnc1-c1ccc(N)cc1F`, 118 to 120 °C.

The compound `CCS(=O)(=O)c1ccc(CC(=O)O)cc1` showed a melting point of 53 to 55 °C. For `O=C(O)c1ccc(-c2ccco2)o1`, the melting point was in the range of 147 to 149 °C. Next, `Nc1cc(-c2c(F)cccc2F)no1`: 114 to 116 °C; `CC(C)c1ccc(C2(C(=O)O)CCCC2)cc1`: 153 to 155 °C.

The compound `COc1cccc(CNC(=O)C(C)Cl)c1` (stereo unspecified) came in with a melting point of 89 to 91 °C. On to `Nc1ccnc(Cc2ccccc2)n1`, for which the melting point fell in the range of 143 to 145 °C. On to `NC(=O)c1ccc(OCCC(=O)O)cc1`, for which the melting point lay in the range of 214 to 216 °C. To `CON(C)S(=O)(=O)c1cc(C(=O)O)ccc1Cl` belongs 228 to 230 °C. Next, `COC(=O)c1ccc2[nH]ncc2c1`: 193 to 195 °C.

In turn, `Cc1ccc(NC(=O)CO)c(Cl)c1` came in with a melting point of 90 to 92 °C. On to `Clc1cn2ccccc2n1`, for which the melting point fell in the range of 72 to 74 °C. To `Nc1nc2ccc(Oc3ccccc3)cc2s1` belongs 159 to 161 °C; to `Cn1cc(C=O)c(-c2ccc(C#N)cc2)n1`, 156 to 158 °C; to `c1ccc2[nH]c(C3CCCCN3)cc2c1` (stereo unspecified), 151 to 153 °C. As to `CCc1c(N)cnn1C`, the melting point lay within 49 to 51 °C. Compound `Oc1nc(S)nc2c1CCC2` showed a melting point of 288 to 290 °C. `N#Cc1ccc(I)cc1C#N`: the melting point is 140 to 142 °C. The compound `COc1ccc(Nc2n[nH]c(N)c2C#N)cc1` gave a melting point of 119 to 121 °C. To `OCc1nccc(Cl)c1Cl` belongs 59 to 61 °C; to `COc1ccc(Cl)cc1CBr`, 77 to 79 °C; to `CCCCOc1ccc(-c2cc(N)on2)cc1`, 112 to 114 °C.

`COC(=O)C(NC(c1ccccc1)(c1ccccc1)c1ccccc1)C(C)O` (stereo unspecified) returned a melting point of 115 to 117 °C. The compound `Cc1nc(N)sc1Cl` registered a melting point of 100 to 102 °C. Take `O=c1cnc2ccccc2[nH]1`: the melting point is 271 to 272 °C. To `CCOC(=O)Cc1cccc(C#N)c1` belongs 47 to 49 °C; to `CC(C1CC2CCC1C2)n1c(N)cc(=O)[nH]c1=O` (stereo unspecified), 248 to 250 °C.

As for `CC(C)(Br)C(=O)Nc1ccccc1`, the melting point is 82 to 84 °C. Regarding `O=Cc1cn(-c2ccc(Cl)c(Cl)c2)nn1`, the melting point lay in the range of 175 to 177 °C. In turn, `CCC(=O)NCc1cc(S(N)(=O)=O)ccc1OC` registered a melting point of 119 to 121 °C. Next, `C=CCc1ccc(OCC(=O)O)c(OC)c1`: 169 to 172 °C. `COC(=O)C1=NN(c2cccc(C(=O)O)c2)C(=O)C1CCO` (stereo unspecified) showed a melting point of 211 to 213 °C. As to `NN=C1C(=O)Nc2c(Cl)cc(Cl)cc21`, the melting point is 261 to 263 °C. Next, `Cc1cc(Nc2nc3ccccc3nc2Cl)n(-c2ccccc2)n1`: 178 to 180 °C. `Nc1c(Cl)ccc2nsnc12` gave a melting point of 89 to 91 °C. For the compound `O=C(O)c1c2c(cc([N+](=O)[O-])c1[N+](=O)[O-])OCCO2`, the melting point lay within 210 to 212 °C. Next, `Cc1nc(Cl)c(Cl)nc1C`: 77 to 79 °C; `NC(=O)CC1CCCCC1`: 165 to 167 °C; `FC(F)(F)c1nc2c([nH]1)CCCC2`: 229 to 231 °C.

For `COC(=O)c1cc2ccc(F)cc2s1`, the melting point lay in the range of 88 to 90 °C. Turning to `OCc1ccc(N2CCN(c3ncccn3)CC2)c(F)c1`, the melting point was in the range of 114 to 116 °C. In the case of `Oc1ccc(C2=Nn3c(nnc3-c3ccc(Br)cc3)SC2)cc1O`, the melting point lay in the range of 269 to 271 °C.
